From the supplement of paper PMC10307832

What was measured:
Assay in all cases: relative viability (nuclei count vs DMSO), 5 days (fraction); higher = more cells survive
[1] = compound: C[C@]1(O)C[C@@H](c2nc(-c3ccc4ccc(-c5ccccc5)nc4c3)c3c(N)nccn32)C1 [Linsitinib] + COc1cccc2cc(-c3nc([C@H]4CC[C@H](C(=O)O)CC4)n4ncnc(N)c34)[nH]c12 [OSI-027] (partner 0.5 µM)
How it was run: (§1)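 Lung cancer cell lines, seeded in 1536-well plates, were treated the following day by pin tool with a single drug or with five library-drug doses (not always all listed) in √10 steps on top of a fixed anchor-drug dose. Cells were fixed and nuclei stained in one step after 5 days, and nuclei were counted. Relative viability is the nuclei count for treated wells divided by that for vehicle wells, reported as medians of duplicate plates.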

[2] = compound: Cc1ccc(C(=O)N(CCCN)[C@@H](c2nc3cc(Cl)ccc3c(=O)n2Cc2ccccc2)C(C)C)cc1 [Ispinesib] + CC(=O)Nc1cccc(-n2c(=O)n(C3CC3)c(=O)c3c(Nc4ccc(I)cc4F)n(C)c(=O)c(C)c32)c1 [Trametinib] (partner 0.02 µM)
How it was run: as §1

[3] = compound: Cc1ccc(C(=O)N(CCCN)[C@@H](c2nc3cc(Cl)ccc3c(=O)n2Cc2ccccc2)C(C)C)cc1 [Ispinesib] + Cc1nc(Nc2ncc(C(=O)Nc3c(C)cccc3Cl)s2)cc(N2CCN(CCO)CC2)n1 [Dasatinib] (partner 0.075 µM)
How it was run: as §1

[4] = compound: Cc1ccc(C(=O)N(CCCN)[C@@H](c2nc3cc(Cl)ccc3c(=O)n2Cc2ccccc2)C(C)C)cc1 [Ispinesib] + O=C(c1cc(Cc2n[nH]c(=O)c3ccccc23)ccc1F)N1CCN(C(=O)C2CC2)CC1 [Olaparib] (partner 8 µM)
How it was run: as §1

Cell Line | relative viability ([1]; first compound 0.01 µM) | relative viability ([1]; first compound 0.03162 µM) | relative viability ([1]; first compound 0.1 µM) | relative viability ([1]; first compound 0.3162 µM) | relative viability ([1]; first compound 1 µM) | relative viability ([2]; first compound 0.001 µM) | relative viability ([2]; first compound 0.003162 µM) | relative viability ([2]; first compound 0.01 µM) | relative viability ([2]; first compound 0.03162 µM) | relative viability ([2]; first compound 0.1 µM) | relative viability ([3]; first compound 0.001 µM) | relative viability ([3]; first compound 0.003162 µM) | relative viability ([3]; first compound 0.01 µM) | relative viability ([3]; first compound 0.03162 µM) | relative viability ([3]; first compound 0.1 µM) | relative viability ([4]; first compound 0.001 µM) | relative viability ([4]; first compound 0.003162 µM) | relative viability ([4]; first compound 0.01 µM) | relative viability ([4]; first compound 0.03162 µM) | relative viability ([4]; first compound 0.1 µM)
NCI-H460 | 0.736 | 0.646 | 0.701 | 0.507 | 0.304 | 0.225 | 0.207 | 0.218 | 0.0463 | 0.0454 | 0.557 | 0.619 | 0.573 | 0.323 | 0.0386 | 0.538 | 0.504 | 0.436 | 0.597 | 0.195
NCI-H520 | 0.232 | 0.188 | 0.25 | – | 0.332 | 0.775 | 0.663 | 0.557 | 0.229 | 0.221 | 0.164 | 0.229 | 0.178 | 0.152 | 0.198 | 0.364 | 0.328 | 0.388 | 0.188 | 0.278
NCI-H522 | 0.729 | 0.798 | 0.695 | – | 0.574 | 0.814 | 0.879 | 0.913 | 0.788 | 0.646 | 0.723 | 1.11 | 1.05 | 0.634 | 0.401 | 0.634 | 0.585 | 0.779 | 0.571 | 0.555
NCI-H596 | 0.7 | 0.694 | 0.802 | 0.674 | 0.448 | 0.745 | 0.876 | 0.799 | 0.83 | 0.706 | 0.573 | 0.589 | 0.62 | 0.641 | 0.334 | 0.652 | 0.629 | 0.638 | 0.671 | 0.571
NCI-H647 | 0.679 | 0.658 | 0.582 | – | 0.428 | 0.536 | 0.508 | 0.434 | 0.209 | 0.133 | 0.176 | 0.173 | 0.122 | 0.0516 | 0.0877 | 0.749 | 0.545 | 0.681 | 0.172 | 0.143
NCI-H650 | 0.524 | 0.527 | 0.541 | 0.256 | 0.27 | 0.969 | 1.07 | 1.03 | 0.828 | 0.779 | 0.491 | 0.473 | 0.448 | 0.349 | 0.172 | 0.361 | 0.384 | 0.409 | 0.427 | 0.278
NCI-H661 | 0.732 | 0.651 | 0.652 | 0.6 | 0.516 | 0.625 | 0.616 | 0.567 | 0.274 | 0.277 | 0.999 | 0.982 | 0.921 | 0.353 | 0.251 | 0.737 | 0.848 | 0.805 | 0.505 | 0.255
NCI-H727 | 0.609 | 0.597 | 0.608 | 0.347 | 0.358 | 0.376 | 0.39 | – | 0.382 | 0.419 | 0.536 | 0.221 | 0.434 | 0.472 | 0.388 | 0.642 | 0.771 | – | 0.659 | 0.633
NCI-H838 | 0.323 | 0.42 | 0.312 | – | 0.189 | 0.627 | 0.529 | 0.542 | 0.359 | 0.164 | 0.325 | 0.335 | 0.29 | 0.242 | 0.182 | 0.914 | 0.875 | 1.11 | 0.668 | 0.203
NCI-H1355 | 0.419 | 0.41 | 0.307 | 0.244 | 0.226 | 0.469 | 0.456 | 0.41 | 0.414 | 0.288 | 0.82 | 0.836 | 0.625 | 0.379 | 0.423 | 0.736 | 0.806 | 0.889 | 0.736 | 0.328
NCI-H1395 | 0.571 | 0.637 | 0.612 | 0.622 | 0.545 | 1.13 | 1.1 | 1.06 | 0.682 | 0.409 | 0.432 | 0.419 | 0.713 | 0.354 | 0.333 | 0.436 | 0.446 | 0.439 | 0.369 | 0.356
NCI-H1437 | 0.874 | 0.885 | 1.02 | 0.853 | 0.893 | 0.557 | 0.541 | 0.688 | 0.614 | 0.144 | 0.45 | 0.512 | 0.395 | 0.35 | 0.166 | 0.685 | 0.653 | 0.763 | 0.7 | 0.256
NCI-H1650 | 0.576 | 0.598 | 0.527 | 0.242 | 0.222 | 0.726 | 0.581 | 0.556 | 0.417 | 0.315 | 0.35 | 0.353 | 0.349 | 0.186 | 0.151 | 0.953 | 0.743 | 0.82 | 0.701 | 0.195
NCI-H1651 | 0.646 | 0.654 | 0.646 | 0.581 | 0.543 | 0.836 | 0.896 | 0.887 | 0.882 | 0.831 | 0.655 | 0.497 | 0.479 | 0.334 | 0.136 | 0.183 | 0.217 | 0.179 | 0.169 | 0.19
NCI-H1666 | 0.772 | 0.957 | 0.759 | 0.476 | 0.434 | 0.934 | 0.864 | 0.788 | 0.858 | 0.604 | 0.864 | 0.894 | 0.776 | 0.594 | 0.419 | 0.756 | 0.801 | 0.702 | 0.713 | 0.663
NCI-H1734 | 0.737 | 0.469 | 0.634 | 0.504 | 0.293 | 0.685 | 0.622 | 0.684 | 0.684 | 0.429 | 0.428 | 0.53 | 0.53 | 0.337 | 0.187 | 0.613 | 0.658 | 0.64 | 0.675 | 0.449
NCI-H1755 | 0.681 | 0.77 | 0.737 | 0.356 | 0.487 | 0.843 | 0.838 | 0.751 | 0.713 | 0.758 | 0.391 | 0.453 | 0.387 | 0.352 | 0.237 | 0.909 | 0.928 | 0.963 | 0.987 | 0.759
NCI-H1792 | – | 0.728 | 0.619 | 0.481 | 0.292 | 0.42 | 0.463 | 0.515 | 0.398 | 0.117 | 1.25 | 0.777 | 0.776 | 0.9 | 0.325 | 0.385 | 0.394 | 0.252 | 0.53 | 0.152
NCI-H1793 | 0.25 | 0.314 | 0.246 | 0.205 | 0.175 | 0.47 | 0.433 | 0.412 | 0.421 | 0.244 | 0.361 | 0.412 | 0.451 | 0.334 | 0.141 | 1.04 | 0.833 | 1.19 | 0.752 | 0.371
NCI-H1915 | 0.646 | 0.678 | 0.623 | 0.515 | 0.392 | 0.29 | 0.323 | 0.314 | 0.279 | 0.22 | 0.304 | 0.312 | 0.38 | 0.25 | 0.137 | 0.262 | 0.266 | 0.298 | 0.258 | 0.209
NCI-H1944 | 0.427 | 0.474 | 0.393 | 0.315 | 0.217 | 0.431 | 0.408 | 0.36 | 0.383 | 0.334 | 0.214 | 0.266 | 0.211 | 0.184 | 0.104 | 0.436 | 0.454 | 0.491 | 0.418 | 0.406
NCI-H1975 | 0.68 | 0.738 | 0.722 | 0.544 | 0.347 | 0.345 | 0.337 | 0.364 | 0.158 | 0.158 | 0.443 | 0.43 | 0.425 | 0.158 | 0.114 | 0.864 | 0.802 | 0.842 | 0.922 | 0.181
NCI-H1993 | 0.502 | 0.534 | 0.525 | 0.407 | 0.679 | 0.619 | 0.527 | 0.414 | 0.508 | 0.423 | 0.617 | 0.373 | 0.634 | 0.548 | 0.584 | 1.08 | 1.07 | 1.11 | 1.23 | 0.822
NCI-H2009 | 0.746 | 0.646 | 0.696 | – | 0.428 | 0.28 | 0.271 | 0.287 | 0.203 | 0.151 | 0.264 | 0.325 | 0.271 | 0.142 | 0.144 | 0.735 | 0.678 | 0.793 | 0.859 | 0.257
NCI-H2023 | 0.425 | 0.215 | 0.358 | 0.212 | 0.12 | 0.574 | 0.606 | 0.551 | 0.24 | 0.14 | 0.693 | 0.613 | 0.613 | 0.306 | 0.146 | 0.543 | 0.553 | 0.511 | 0.271 | 0.232
NCI-H2085 | 0.681 | 0.657 | 0.814 | 0.712 | 0.431 | 0.498 | 0.563 | 0.58 | 0.519 | 0.472 | 0.228 | 0.225 | 0.242 | 0.261 | 0.206 | 0.747 | 0.779 | 0.845 | 0.792 | 0.544
NCI-H2087 | 0.691 | 0.582 | 0.463 | 0.362 | 0.182 | 0.153 | 0.196 | 0.212 | 0.236 | 0.0806 | 0.998 | 0.841 | 0.963 | 0.39 | 0.117 | 0.708 | 0.694 | 0.801 | 0.545 | 0.145
